We go through five molecules from ChEMBL document CHEMBL5543097, “Synthesis and structure-activity relationships of novel 14-membered 2-fluoro ketolides with structural modification at the C11 position” (Eur J Med Chem, 2024).

In data set [1] the test system is Moraxella catarrhalis. Briefly: Antibacterial activity against Moraxella catarrhalis BCA 19-5 assessed as inhibition of bacterial growth incubated for 24 hrs by CLSI based broth microdilution method. Conditions: Moraxella catarrhalis, BCA 19-5, 24 h, read-out: MIC. The class given is functional. On the technique in general: Broth dilution looks for growth in wells or tubes with falling amounts of substance.

Data set [2] deals with Staphylococcus epidermidis. As to the kind of experiment: Antibacterial activity against erythromycin-resistant Staphylococcus epidermidis 19-6 assessed as inhibition of visible bacterial growth incubated for 18 hrs by broth microdilution method. The class given is functional.
In data set [3] the test system is Haemophilus influenzae. As to the kind of experiment: Antibacterial activity against Haemophilus influenzae HIN 20-18 assessed as inhibition of bacterial growth incubated for 20 to 24 hrs by CLSI based broth microdilution method. Conditions: time 20-24 hrs. The class given is functional.
In data set [4] the test system is Staphylococcus epidermidis. Briefly: Antibacterial activity against erythromycin-resistant Staphylococcus epidermidis 19-9 assessed as inhibition of visible bacterial growth incubated for 18 hrs by broth microdilution method. The class given is functional.
In data set [5] the test system is Streptococcus pneumoniae. As to the kind of experiment: Antibacterial activity against erythromycin-resistant Streptococcus pneumoniae SPN19-8 assessed as inhibition of visible bacterial growth incubated for 18 hrs by broth microdilution method. The class given is functional.
The test system of data set [6] is Streptococcus pneumoniae. Briefly: Antibacterial activity against erythromycin-resistant Streptococcus pneumoniae SPN19-13 assessed as inhibition of visible bacterial growth incubated for 18 hrs by broth microdilution method. The class given is functional.
Data set [7] concerns Streptococcus agalactiae. As to the kind of experiment: Antibacterial activity against erythromycin-resistant Streptococcus agalactiae 19-9 assessed as inhibition of visible bacterial growth incubated for 18 hrs by broth microdilution method. The class given is functional.
Data set [8] deals with Streptococcus pyogenes. As to the kind of experiment: Antibacterial activity against erythromycin-resistant Streptococcus pyogenes ATCC 19615 assessed as inhibition of visible bacterial growth incubated for 18 hrs by broth microdilution method. The class given is functional.
The subject of data set [9] is Moraxella catarrhalis. Briefly: Antibacterial activity against Moraxella catarrhalis BCA 19-31 assessed as inhibition of bacterial growth incubated for 24 hrs by CLSI based broth microdilution method. Conditions: BCA 19-31, 24 h. The class given is functional.
Data set [10] relates to Haemophilus influenzae. As to the kind of experiment: Antibacterial activity against Haemophilus influenzae HIN 19-18 assessed as inhibition of bacterial growth incubated for 20 to 24 hrs by CLSI based broth microdilution method. The class given is functional. Conditions: HIN 19-18, time 20-24 hrs.
For data set [11], the system named is Haemophilus influenzae. As to the kind of experiment: Antibacterial activity against Haemophilus influenzae HIN 19-15 assessed as inhibition of bacterial growth incubated for 20 to 24 hrs by CLSI based broth microdilution method. The class given is functional. The settings on record: time 20-24 hrs.
The subject of data set [12] is Staphylococcus epidermidis. As to the kind of experiment: Antibacterial activity against erythromycin-resistant Staphylococcus epidermidis 19-5 assessed as inhibition of visible bacterial growth incubated for 18 hrs by broth microdilution method. The class given is functional.
Data set [13] has as its system Streptococcus pneumoniae. Briefly: Antibacterial activity against erythromycin-resistant Streptococcus pneumoniae SPN19-14 assessed as inhibition of visible bacterial growth incubated for 18 hrs by broth microdilution method. The class given is functional.
The test system of data set [14] is Staphylococcus epidermidis. As to the kind of experiment: Antibacterial activity against erythromycin-resistant Staphylococcus epidermidis 19-4 assessed as inhibition of visible bacterial growth incubated for 18 hrs by broth microdilution method. The class given is functional.
Data set [15] concerns Staphylococcus epidermidis. As to the kind of experiment: Antibacterial activity against erythromycin-resistant Staphylococcus epidermidis 19-8 assessed as inhibition of visible bacterial growth incubated for 18 hrs by broth microdilution method. The class given is functional.
A short description of data set [16]: Cytotoxicity against mouse AML12 cells assessed as reduction in cell viability incubated for 48 hrs by MTT assay. The class given is toxicity, cell-based. On the technique in general: Formazan colour is commonly taken as a measure of viable cells.
Data set [17] deals with Staphylococcus epidermidis. As to the kind of experiment: Antibacterial activity against erythromycin-resistant Staphylococcus epidermidis 19-11 assessed as inhibition of visible bacterial growth incubated for 18 hrs by broth microdilution method. The class given is functional.
Data set [18] relates to Moraxella catarrhalis. As to the kind of experiment: Antibacterial activity against Moraxella catarrhalis BCA 19-6 assessed as inhibition of bacterial growth incubated for 24 hrs by CLSI based broth microdilution method. The class given is functional. Conditions: Moraxella catarrhalis, BCA 19-6, 24 h, read-out: MIC.

Values after ≈ are worked out from the molar mass of the structure shown.

As usually defined, the CC50 is the concentration at which the toxic effect on the cells reaches its halfway point. Consider `CCOc1ccc(NC(=O)OCCCN2C(=O)O[C@]3(C)[C@@H](CC)OC(=O)[C@@](C)(F)C(=O)[C@H](C)[C@@H](O[C@@H]4O[C@H](C)C[C@H](N(C)C)[C@H]4O)[C@](C)(OC)C[C@@H](C)C(=O)[C@H](C)[C@@H]23)cc1`, for which the MIC in [1] was 0.5 µg/mL (≈ 0.587 µM); in data set [2], 0.25 µg/mL (≈ 0.293 µM); in [3], greater than 16 µg/mL; in [4], 0.5 µg/mL (≈ 0.587 µM); in data set [5] it was 0.25 µg/mL (≈ 0.293 µM); in data set [6], 0.5 µg/mL (≈ 0.587 µM). The MIC was 2 µg/mL (≈ 2.35 µM) in data set [7]; less than 0.03 µg/mL in data set [8]; 0.5 µg/mL (≈ 0.587 µM) in [9]; 16 µg/mL (≈ 18.8 µM) in [10]; greater than 16 µg/mL in [11]; 0.06 µg/mL (≈ 0.0704 µM) in [12]. In addition, the MIC stood at 0.5 µg/mL (≈ 0.587 µM) in data set [13]; 0.5 µg/mL (≈ 0.587 µM) in data set [14]; 0.25 µg/mL (≈ 0.293 µM) in data set [15]; 0.125 µg/mL (≈ 0.147 µM) in data set [17]; 1 µg/mL (≈ 1.17 µM) in data set [18]. The CC50 at 48 h in data set [16] turned out to be 36.5 µM.

On to `CC[C@H]1OC(=O)[C@@](C)(F)C(=O)[C@H](C)[C@@H](O[C@@H]2O[C@H](C)C[C@H](N(C)C)[C@H]2O)[C@](C)(OC)C[C@@H](C)C(=O)[C@H](C)[C@H]2N(CCCOC(=O)Nc3cc(C)oc3C(F)(F)F)C(=O)O[C@]12C`, for which the MIC in [1] was 0.5 µg/mL (≈ 0.568 µM); in [3] it was greater than 16 µg/mL; in data set [9] it was 0.5 µg/mL (≈ 0.568 µM); in data set [10], 4 µg/mL (≈ 4.55 µM); in data set [11] it was 0.5 µg/mL (≈ 0.568 µM); in data set [18] it was 0.5 µg/mL (≈ 0.568 µM). Further, in [16], the CC50 at 48 h was 35.9 µM.

For `CC[C@H]1OC(=O)[C@@](C)(F)C(=O)[C@H](C)[C@@H](O[C@@H]2O[C@H](C)C[C@H](N(C)C)[C@H]2O)[C@](C)(OC)C[C@@H](C)C(=O)[C@H](C)[C@H]2N(CCCOC(=O)Nc3ccccc3Cl)C(=O)O[C@]12C`, the MIC in [1] turned out to be 0.25 µg/mL (≈ 0.297 µM); in data set [2], 0.125 µg/mL (≈ 0.148 µM); in [3] it was 16 µg/mL (≈ 19 µM); in data set [4], 0.25 µg/mL (≈ 0.297 µM); in data set [5] it was 0.25 µg/mL (≈ 0.297 µM); in [6] it was 0.25 µg/mL (≈ 0.297 µM). For the same molecule, the MIC in data set [7] is 1 µg/mL (≈ 1.19 µM); in data set [8], less than 0.03 µg/mL; in data set [9] it was 1.12 µg/mL (≈ 1.34 µM); in data set [10], 8 µg/mL (≈ 9.5 µM); in [11] it was 8 µg/mL (≈ 9.5 µM); in data set [12], less than 0.03 µg/mL. In addition, the MIC in data set [13] is 0.25 µg/mL (≈ 0.297 µM); in [14], 0.06 µg/mL (≈ 0.0712 µM); in data set [15], 0.125 µg/mL (≈ 0.148 µM); in [17] it was less than 0.06 µg/mL; in data set [18], 0.5 µg/mL (≈ 0.594 µM). The CC50 at 48 h in [16] was 36.2 µM.

In the case of `CC[C@H]1OC(=O)[C@@](C)(F)C(=O)[C@H](C)[C@@H](O[C@@H]2O[C@H](C)C[C@H](N(C)C)[C@H]2O)[C@](C)(OC)C[C@@H](C)C(=O)[C@H](C)[C@H]2N(CCCOC(=O)Nc3cccc(C)c3C)C(=O)O[C@]12C`, the MIC in [1] came to 0.125 µg/mL (≈ 0.15 µM); in [2] it was 0.03 µg/mL (≈ 0.0359 µM); in data set [3], 16 µg/mL (≈ 19.1 µM); in data set [4], 0.125 µg/mL (≈ 0.15 µM); in [5], 0.125 µg/mL (≈ 0.15 µM); in data set [6] it was 0.06 µg/mL (≈ 0.0718 µM). In addition, the MIC in [7] is 1 µg/mL (≈ 1.2 µM); in [8], less than 0.03 µg/mL; in data set [9], 0.125 µg/mL (≈ 0.15 µM); in [10] it was 8 µg/mL (≈ 9.57 µM); in [11], 8 µg/mL (≈ 9.57 µM); in data set [12] it was less than 0.03 µg/mL. Further, the MIC in data set [13] is 0.06 µg/mL (≈ 0.0718 µM); in [14], 0.03 µg/mL (≈ 0.0359 µM); in data set [15], less than 0.03 µg/mL; in data set [17] it was 0.03 µg/mL (≈ 0.0359 µM); in data set [18], 0.125 µg/mL (≈ 0.15 µM). For the same molecule, the CC50 at 48 h in data set [16] was found to be 26 µM.

Take `CC[C@H]1OC(=O)[C@@](C)(F)C(=O)[C@H](C)[C@@H](O[C@@H]2O[C@H](C)C[C@H](N(C)C)[C@H]2O)[C@](C)(OC)C[C@@H](C)C(=O)[C@H](C)[C@H]2N(CCCOC(=O)Nc3c(F)cccc3F)C(=O)O[C@]12C`: the MIC in data set [1] was found to be 0.122 µg/mL (≈ 0.145 µM); in data set [2] it was 0.125 µg/mL (≈ 0.148 µM); in [3], 16 µg/mL (≈ 19 µM); in data set [4] it was 0.25 µg/mL (≈ 0.296 µM); in [5], 0.125 µg/mL (≈ 0.148 µM); in [6], 0.125 µg/mL (≈ 0.148 µM). Also, the MIC in data set [7] is 1 µg/mL (≈ 1.18 µM); in [8], less than 0.03 µg/mL; in data set [9], 0.125 µg/mL (≈ 0.148 µM); in [10] it was 4 µg/mL (≈ 4.74 µM); in data set [11] it was 4 µg/mL (≈ 4.74 µM); in [12] it was less than 0.03 µg/mL. For the same molecule, the MIC is 0.125 µg/mL (≈ 0.148 µM) in [13]; 0.03 µg/mL (≈ 0.0355 µM) in data set [14]; 0.125 µg/mL (≈ 0.148 µM) in data set [15]; less than 0.03 µg/mL in data set [17]; 0.125 µg/mL (≈ 0.148 µM) in [18]. For the same molecule, the CC50 at 48 h in data set [16] is greater than 100 µM.
